According to publication PMC12281487, “Discovery and Validation of a Novel Class of Necroptosis Inhibitors Targeting RIPK1” (ACS Chemical Biology, 2025):

Assays:
kinase domain of RIPK1 = target: T1, kinase domain of RIPK1 (Homo sapiens, UniProt Q13546); assay: SPR binding assay
T1 construct: recombinant human kinase domain of RIPK1 [RIPK1 (8-322)-Avi-His]; His (C); made in house; host or cells: Sf21 insect cells (baculovirus, Bac-to-Bac), co-expressed with Cdc37
T1 sequence (Q13546 8-322): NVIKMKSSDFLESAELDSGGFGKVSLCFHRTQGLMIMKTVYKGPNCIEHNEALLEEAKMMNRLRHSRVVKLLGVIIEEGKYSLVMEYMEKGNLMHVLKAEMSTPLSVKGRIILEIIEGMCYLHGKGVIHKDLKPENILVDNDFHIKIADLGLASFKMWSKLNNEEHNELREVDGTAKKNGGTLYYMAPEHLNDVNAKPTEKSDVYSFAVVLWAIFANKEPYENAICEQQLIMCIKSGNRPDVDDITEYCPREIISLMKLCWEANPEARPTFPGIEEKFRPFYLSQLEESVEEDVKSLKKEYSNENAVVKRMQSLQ
Experimental: Biotinylated recombinant human kinase domain of RIPK1 [RIPK1 (8-322)-Avi-His] was produced in Sf21 cells using baculovirus infection (Bac-to-Bac system, Thermo Fisher Scientific). Briefly, the RIPK1 (8-322)-Avi-His baculovirus was inoculated into Sf21 cells at 1.5 × 10^6 cells/mL, with 1 mL of virus added per 500 mL of cells for P2 virus generation. The cells were grown at 27 °C, 140 rpm for 72 h. RIPK1 was co-expressed with Cdc37 at a 4:1 (RIPK1/Cdc37) v/v virus ratio in Sf21 cells by inoculation with P2 virus (25 mL per 500 mL bottle). The cells were grown at 27 °C while shaking at 140 rpm for 48 h before being harvested by centrifugation at 6500 rpm and 4 °C for 15 min and stored at −80 °C before further purification. 25 μM of Nec-1s (ab221984, Abcam) was added to the culture medium at time of viral infection to stabilize protein.
Briefly, RIPK1 kinase domain was immobilized on a streptavidin-coated sensor chip (Cytiva). The surface was washed with 10 mM NaOH, 1 M NaCl, followed by immobilization of the protein. […] The reference spot was treated as described, omitting the injection of RIPK1. Compound concentration series was injected over the immobilized protein in increasing concentrations using multi cycle or single cycle kinetics in running buffer (10 mM HEPES, 150 mM NaCl, 0.05% Tween20, 0.1% DMSO, pH 7.4). A 1:1 Langmuir interaction model was fitted to the experimental traces, enabling determination of k on, k off, and K D.

[1] = test system: RIPK1 Ser166 phosphorylation; assay: Western blot of RIPK1 Ser166 phosphorylation in I2.1 cells; type: cell-based, human; details: prior treatment with 10 μM compound
Experimental: All compound treatments were performed with a preprepared 1000× stock of the desired concentration in DMSO and added directly to the relevant plate, with a final concentration of 0.1% DMSO on the cells. TNF (final concentration 575 pM) was added to induce necroptosis, the cells incubated for 4 h and harvested.
Cells were transferred to a microcentrifuge tube and centrifuged at 200g for 5 min, and media were removed. Cells were washed with PBS and lysed with 100 μL of lysis buffer (radioimmunoprecipitation assay lysis buffer, Sigma-Aldrich, R0278) supplemented with 1× phosphatase inhibitor cocktail 2 (Sigma, P5726) and 1× complete EDTA-free protease inhibitor cocktail (Sigma, […])) on ice for 30 min. The lysate was collected by centrifugation at 17,000g, 4 °C for 5 min, and the lysate was transferred to a new microcentrifuge tube. Protein concentration was determined using the DC Protein Assay (Bio-Rad) in a 96-well plate as per the manufacturer’s instructions and subsequently adjusted to 1 mg mL^–1 using lysis buffer. Samples were prepared by adding 4 μL of 4× loading buffer (Biorad, 161-0747) containing β-mercaptoethanol to 12 μL of protein sample and boiling at 95 °C for 10 min. 14 μL of each sample was loaded onto a 4–15% Mini-PROTEAN TGX precast gel (Biorad, 456-1086) and run in 1× running buffer (0.25 M Tris, 0.2 M glycine, 0.1% (w/v) SDS) for 1.15 h at 130 V. Either 2 μL of precision plus protein all blue prestained protein standards (Bio-Rad, 1610373) or precision plus protein dual color standards (Bio-Rad, 1610374) was used in at least one well.
Proteins were transferred onto a nitrocellulose membrane (GE Healthcare) using the Trans-Blot Turbo Transfer System (Biorad, 1704150) at 2.5 A and 25 V for 7 min. The membrane was stained with Ponceau S to confirm protein transfer prior to blocking with 5% (w/v) nonfat dried skimmed milk in TBS-T (1× Tris-buffered saline, 0.1% (v/v) Tween-20) at rt for 1 h. Staining with the desired primary antibody in 5% (w/v) nonfat dried skimmed milk in TBS-T was performed overnight at 4 °C. The blot was washed with TBS-T at rt (3 × 5 min) and stained with secondary antibody in 5% (w/v) nonfat dried skimmed milk in TBS-T for 1 h at rt. The blot was washed with TBS-T at rt (3 × 5 min), visualized with Immobilon Crescendo Western HRP substrate, and imaged using ImageQuant LAS-4000 Imaging System (Fujifilm), and the contrast normalized in Fiji.

[2] = test system: I2.1 FADD–/– human Jurkat cells; assay: IncuCyte necroptosis assay in I2.1 cells; details: Homo sapiens, Jurkat, read-out: EC50 (95% CI), necroptosis inhibition
Experimental: A cell-based assay was established to monitor necroptosis in I2.1 cells using the IncuCyte S3 live cell microscopy platform (Figure S1a). Necroptosis was induced by treatment with TNF, and Sytox Green was used to monitor membrane permeabilization over time as an indicator of progressive necroptotic cell death (Figure S1b–d), allowing determination of the EC50 of candidate necroptosis inhibitors.
I2.1 cells were seeded in a sterile 96-well plate (Greiner) at 20,000 cells per well and incubated at 37 °C overnight. The cells were treated with a final concentration of 600 pM TNF, 1 μM Sytox Green, and compounds in a dose-dependent manner. Wells containing TNF and Sytox Green served as positive control. Wells containing DMSO and Sytox Green served as a negative control. The plate was placed into an IncuCyte S3 Live Cell Analysis System (Sartorius) and readings for phase and green fluorescence were taken every hour for 24 h, with 4 images per well. The images were analyzed with IncuCyte 2021C software and the Green Integrated Intensity Per Image/Phase Area Per Image (GCU × μm^2/image/μm^2/image or GP) was exported. The background at t = 0 h was subtracted, and the linear slope (t = 3–7 h) was calculated by plotting GP against time. The percent inhibition of necroptosis was determined by normalizing to the positive and negative controls and graphing against the [compound]. EC50 values were determined using Prism 10 for each replicate, which were then used to calculate the geometric mean EC50 and associated 95% CIs.
I2.1 cells in a 96-well plate were treated with TNF to induce necroptosis, a dilution series of the candidate necroptosis inhibitor and Sytox Green to monitor cell death. Plates were placed in the IncuCyte® and imaged every hour for 24 h. Cell death was measured over time and used to determine the proportion of necroptotic cells compared to those without necroptosis induction or not treated with an inhibitor. The linear portion of the graph was used to determine an initial rate for calculation of the EC50. TNF with Sytox Green and Sytox Green alone were used as positive and negative controls, respectively. […] EC50 values are expressed as the geometric mean with a 95% confidence interval (CI) of at least three biological replicates.

C57BL/6J mice = assay: TNF-induced SIRS murine model; details: 5 mg/kg i.v. 15 min before TNF 0.5 mg/kg i.v., 3 mice per group
Experimental: Male C57BL/6J mice of 18–25 g were used at the age of 6–8 weeks. Three animals were included in each experimental group. All animal experiments were carried out with the permission of the local animal ethical committee in accordance with the EU Directive (2010/63/EU), Portuguese laws (DL113/2013, 2880/2015, 260/2016), and all relevant legislations. Animals received humane care in a temperature-controlled environment with a 12 h light–dark cycle and ad libitum access to pelleted chow and water, complying with the Institute’s guidelines, and as outlined in the “Guide for the Care and Use of Laboratory Animals” prepared by the National Academy of Sciences and published by the National Institutes of Health (NIH publication 86-23 revised 1985). […] TNF was diluted in sterile PBS. […] All injections were administered intravenously (i.v.).

Which results are given for CN1C(=O)C(Cc2c[nH]c3ccccc23)NC1=S (stereo not drawn) [Nec-1, Necrostatin 1]?
koff (kinase domain of RIPK1; 1:1 fitting, 20 °C): 0.011 ± 0.002 s⁻¹; kon (kinase domain of RIPK1; 1:1 fitting, 20 °C): 260000 M⁻¹ s⁻¹; Kd (kinase domain of RIPK1; absence of Nec-1, read-out: Binding affinity (pKD) (converted)): 44.7 nM; phosphorylation of RIPK1 Ser166 after TNF [1]: blocked; EC50 [2]: 750 nM; protection from TNF-induced mortality (survival) (C57BL/6J mice): partially protected
